In patent US20260159500A1, “KINESIN KIF18A INHIBITOR AND USE THEREOF” (SHANGHAI APEIRON THERAPEUTICS COMPANY LIMITED, priority 2022, published 2026) one finds IC50 data, which are given here for 17 molecules.

The test system of one test is OVCAR3 cells. Briefly: Cell proliferation activity test in OVCAR3 cells (CyQUANT Direct). Format: cell-based. Conditions: Homo sapiens, OVCAR-3, 72 h, 3 days incubation, CyQUANT fluorescence detection, read-out: OVCAR-3_IC50_nM. Here is the method:
OVCAR3 cells were purchased from Nanjing Cobioer Biosciences Co., Ltd. RPMI-1640 medium, fetal bovine serum, and the CyQUANT Direct Cell Proliferation Assay kit were purchased from Thermo Fisher Scientific, USA; 96-well cell culture plates were sourced from Corning, USA.
Culture OVCAR3 cells with RPMI-1640 medium containing 10% fetal bovine serum and incubate them in a 5% CO2 incubator at 37° C. Only cells in the logarithmic growth phase can be used for the test.
Inoculate OVCAR3 cells into a 96-well cell culture plate at 90 μL per well and incubate overnight in a 5% CO2 incubator at 37° C. Dissolve the compound powder in DMSO to prepare a stock solution of 10 mM. Then perform gradient dilution for the compounds in the microplate to achieve a final concentration of 0-10 μM. Add 10 μL of cell culture medium containing compounds to each well to make the final DMSO content 0.2%. Incubate the cell plates in a 5% CO2 incubator at 37° C. for 3 days. Add 100 μL of CyQUANT detection reagent to each well, react at 37° C. for 60 min, and perform fluorescence detection using the PerkinElmer Envision.

Another test concerns HT29 cells. Briefly: CyQuant cell proliferation activity test in HT29 cells. Format: cell-based. Particulars: Homo sapiens, HT-29, 72 h, 2000 cells per well, 3 days incubation, IC50 by XLFIT, read-out: HT29_IC50_nM. Here is the method: HT29 cells were purchased from Nanjing Cobioer Biosciences Co., Ltd.; RPMI-1640 medium, fetal bovine serum, Trypsin-EDTA (0.25%), 96-well plates, and CyQuant reagents were purchased from ThermoFisher (USA); DMSO was purchased from SIGMA (USA).
Culture HT29 cells with RPMI-1640 containing 10% fetal bovine serum under the condition of 37° C. and 5% CO2. Only cells in the logarithmic growth phase can be used for the test.
Use the CyQuant reagent to detect the proliferation inhibitory activity of compounds on HT29 cells. Adjust the cell density and inoculate 100 μL per well into the 96-well plate (HT29 at 2000 cells per well), then incubate overnight under the condition of 37° C. and 5% CO2. Add compounds of various target concentrations (initial concentration of 3000 nM, 3-fold dilution, 9 concentration gradients), and make the DMSO content 0.2%. Incubate the cell plates at 37° C. and 5% CO2 for 3 days. Incubate with CyQuant reagent for 1 h, read the plate by Envision, and calculate IC50 using XLFIT.

The target of test [1] is T1, Human KIF18A (amino acid sequence 1-417) (Homo sapiens, UniProt Q8NI77).
T1 construct: purchased Viva Biotech (Shanghai) Ltd
T1 sequence (Q8NI77 1-417): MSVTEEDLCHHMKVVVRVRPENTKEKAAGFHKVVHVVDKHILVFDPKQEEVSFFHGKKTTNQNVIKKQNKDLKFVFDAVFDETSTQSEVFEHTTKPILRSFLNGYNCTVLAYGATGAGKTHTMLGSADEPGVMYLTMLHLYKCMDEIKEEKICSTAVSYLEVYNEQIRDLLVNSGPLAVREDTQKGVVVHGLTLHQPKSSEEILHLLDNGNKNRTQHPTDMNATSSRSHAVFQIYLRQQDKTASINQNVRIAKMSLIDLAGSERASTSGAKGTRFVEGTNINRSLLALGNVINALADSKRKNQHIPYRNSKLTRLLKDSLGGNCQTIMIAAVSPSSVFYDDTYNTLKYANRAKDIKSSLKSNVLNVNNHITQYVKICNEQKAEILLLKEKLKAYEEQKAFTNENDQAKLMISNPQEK
Briefly: Enzymatic activity test (ADP-Glo, microtubule-stimulated KIF18A ATPase). Particulars: 60 μg/mL microtubules, 25 μM ATP, 2.5 nM KIF18A protein, 120 min at ambient temperature, read-out: KIF18A_nM. Format: biochemical. Here is the method:
Human KIF18A (amino acid sequence 1-417) was purchased from Viva Biotech (Shanghai) Ltd.; the ADP-Glo™ protein kinase kit was acquired from Promega, USA; tubulin was sourced from Cytoskeleton, USA; and the 384-well assay plate and Envision multifunctional microplate reader were obtained from PerkinElmer, USA.
Dissolve the compound powder in DMSO to prepare a stock solution of 10 mM. Then perform gradient dilution for the compounds in the microplate to achieve a final concentration of 0-10 μM. Then, add 2.5 μL each of tubulin, compound, ATP, and KIF18A protein to the microplate in sequence for reaction at ambient temperature for 120 min. The final concentrations in the enzyme reaction are 60 μg/mL for microtubules, 25 μM for ATP, and 2.5 nM for KIF18A protein. After the enzyme reaction, add 10 μL of ADP-GLO reaction reagent to each well and incubate at ambient temperature for 30 min. After that, add 20 μL of detection reagent to each well and incubate at ambient temperature for 30 min in the dark. Finally, perform chemiluminescence detection using the PerkinElmer Envision.

Some results are limits rather than exact numbers.

Consider `O=C(Nc1nc2c(c(N3CCC(F)(F)CC3)n1)COC2)c1ccc(NS(=O)(=O)CCO)cc1N1CCC2(CC1)CC2` [Example 4, N-(4-(4,4-difluoropiperidin-1-yl)-5,7-dihydrofuro[3,4-d]pyrimidin-2-yl)-4-(2-hydroxyethylsulfonamido)-2-(6-azaspiro[2.5]octan-6-yl)benzamide], for which the IC50 was determined as 1350 nM in the test with OVCAR3 cells, 2020 nM in the test on HT29 cells and 29 nM in test [1].

As for `O=C(Nc1cc2c(c(N3CCC(F)(F)CC3)n1)COC2)c1ccc(NS(=O)(=O)CCO)cc1N1CCC2(CC1)CC2` [Example 5, N-(4-(4,4-difluoropiperidin-1-yl)-1,3-dihydrofuro[3,4-c]pyridin-6-yl)-4-(2-hydroxyethylsulfonamido)-2-(6-azaspiro[2.5]octan-6-yl)benzamide], the results for the IC50 (in the test on OVCAR3 cells; in the test on HT29 cells; in test [1]) were 6 nM, 7 nM and 28 nM, respectively.

Take `O=C(Nc1nc2c(c(N3CCC(F)(F)CC3)n1)CNC2)c1ccc(NS(=O)(=O)CCO)cc1N1CCC2(CC1)CC2` [Example 7, N-(4-(4,4-difluoropiperidin-1-yl)-6,7-dihydro-5H-pyrrolo[3,4-d]pyrimidin-2-yl)-4-(2-hydroxyethylsulfonamido)-2-(6-azaspiro[2.5]octan-6-yl)benzamide]: the values for the IC50 (in the test on OVCAR3 cells; with HT29 cells; in test [1]) were above 10000 nM, above 10000 nM and 100 nM, respectively.

`CN1Cc2nc(NC(=O)c3ccc(NS(=O)(=O)CCO)cc3N3CCC4(CC3)CC4)nc(N3CCC(F)(F)CC3)c2C1` [Example 8, N-(4-(4,4-difluoropiperidin-1-yl)-6-methyl-6,7-dihydro-5H-pyrrolo[3,4-d]pyrimidin-2-yl)-4-(2-hydroxyethylsulfonamido)-2-(6-azaspiro[2.5]octan-6-yl)benzamide]: the IC50 with OVCAR3 cells was above 3000 nM; with HT29 cells it was above 3000 nM; in test [1] it was 280 nM.

For the molecule `CC1OCc2c1cc(NC(=O)c1ccc(NS(=O)(=O)CCO)cc1N1CCC3(CC1)CC3)nc2N1CCC(F)(F)CC1` (stereo not shown) [Example 9, N-(4-(4,4-difluoropiperidin-1-yl)-1-methyl-1,3-dihydrofuro[3,4-c]pyridin-6-yl)-4-((2-hydroxyethyl)sulfonamido)-2-(6-azaspiro[2.5]octan-6-yl)benzamide], the IC50 with OVCAR3 cells is 55 nM; with HT29 cells, 37 nM; in test [1], 49 nM.

As to `CCC1(C)OCc2c1cc(NC(=O)c1ccc(NS(=O)(=O)CCO)cc1N1CCC3(CC1)CC3)nc2N1CCC(F)(F)CC1` (stereo not shown) [Example 10, N-(4-(4,4-difluoropiperidin-1-yl)-1-ethyl-1-methyl-1,3-dihydrofuro[3,4-c]pyridin-6-yl)-4-(2-hydroxyethylsulfonamido)-2-(6-azaspiro[2.5]octan-6-yl)benzamide], the IC50 in the test with OVCAR3 cells came to 614 nM; with HT29 cells, 1270 nM; in test [1], 2750 nM.

On to `O=C(Nc1cn2cccc2c(N2CCC(F)(F)CC2)n1)c1ccc(NS(=O)(=O)CCO)cc1N1CCC2(CC1)CC2` [Example 11, N-(1-(4,4-difluoropiperidin-1-yl)pyrrolo[1,2-a]pyrazin-3-yl)-4-(2-hydroxyethylsulfonamido)-2-(6-azaspiro[2.5]octan-6-yl)benzamide], for which the IC50 in the test on OVCAR3 cells was 28 nM; with HT29 cells it was 28 nM; in test [1], 191 nM.

In the case of `Cc1ncc2c(N3CCC(F)(F)CC3)nc(NC(=O)c3ccc(NS(=O)(=O)CCO)cc3N3CCC4(CC3)CC4)cn12` [Example 12, N-(8-(4,4-difluoropiperidin-1-yl)-3-methylimidazo[1,5-a]pyrazin-6-yl)-4-(2-hydroxyethylsulfonamido)-2-(6-azaspiro[2.5]octan-6-yl)benzamide], the IC50 in the test with OVCAR3 cells amounted to 80 nM; in the test on HT29 cells, 102 nM; in test [1], 80 nM.

With `O=C(Nc1cn2ccnc2c(N2CCC(F)(F)CC2)n1)c1ccc(NS(=O)(=O)CCO)cc1N1CCC2(CC1)CC2` [Example 13, N-(8-(4,4-difluoropiperidin-1-yl)imidazolo[1,2-a]pyrazin-6-yl)-4-((2-hydroxyethyl)sulfonamide)-2-(6-azaspiro[2.5]octan-6-yl)benzamide], the IC50 worked out at 9 nM in the test on OVCAR3 cells, 13 nM with HT29 cells and 27 nM in test [1].

As for `O=C(Nc1cc(N2CCC(F)(F)CC2)c2nccn2c1)c1ccc(NS(=O)(=O)CCO)cc1N1CCC2(CC1)CC2` [Example 14, N-(8-(4,4-difluoropiperidin-1-yl)imidazo[1,2-a]pyridin-6-yl)-4-((2-hydroxyethyl)sulfonamido)-2-(6-azaspiro[2.5]oct-6-yl)benzamide], the IC50 in the test with OVCAR3 cells came out at 9 nM; with HT29 cells it was 17 nM; in test [1], 32 nM.

For the molecule `Cc1nc2c(N3CCC(F)(F)CC3)nc(NC(=O)c3ccc(NS(=O)(=O)CCO)cc3N3CCC4(CC3)CC4)cn2c1C` [Example 15], the IC50 in the test with OVCAR3 cells is 71 nM; in the test with HT29 cells, 97 nM; in test [1], 205 nM.

As for `O=C(Nc1cn2ncnc2c(N2CCC(F)(F)CC2)n1)c1ccc(NS(=O)(=O)CCO)cc1N1CCC2(CC1)CC2` [Example 16], the IC50 is 33 nM in the test with OVCAR3 cells, 56 nM in the test on HT29 cells and 29 nM in test [1].

On to `O=C(Nc1cn2nccc2c(N2CCC(F)(F)CC2)n1)c1ccc(NS(=O)(=O)CCO)cc1N1CCC2(CC1)CC2` [Example 17], for which the IC50 was 20 nM with OVCAR3 cells, 30 nM with HT29 cells and 28 nM in test [1].

For the molecule `O=C(Nc1cc(N2CCC(F)(F)CC2)c2ncnn2c1)c1ccc(NS(=O)(=O)CCO)cc1N1CCC2(CC1)CC2` [Example 18], the IC50 with OVCAR3 cells is 16 nM; in the test on HT29 cells, 35 nM; in test [1], 12 nM.

Take `O=C(Nc1cn2cnnc2c(N2CCC(F)(F)CC2)n1)c1ccc(NS(=O)(=O)CCO)cc1N1CCC2(CC1)CC2` [Example 19, N-(8-(4,4-difluoropiperidin-1-yl)-[1,2,4]triazolo[4,3-a]pyrazin-6-yl)-4-((2-hydroxyethyl)sulfonamido)-2-(6-azaspiro[2.5]oct-6-yl)benzamide]: the IC50 stood at 18 nM with OVCAR3 cells, 28 nM with HT29 cells and 13 nM in test [1].

Regarding `O=C(Nc1cc2cccn2c(N2CCC(F)(F)CC2)n1)c1ccc(NS(=O)(=O)CCO)cc1N1CCC2(CC1)CC2` [Example 20, N-(1-(4,4-difluoropiperidin-1-yl)pyrrolo[1,2-c]pyrimidin-3-yl)-4-(2-hydroxyethylsulfonamido)-2-(6-azaspiro[2.5]octan-6-yl)benzamide], the figures for the IC50 in the test on OVCAR3 cells and with HT29 cells were 18 nM and 23 nM, respectively.

As to `Cn1ccc2c(N3CCC(F)(F)CC3)nc(NC(=O)c3ccc(NS(=O)(=O)CCO)cc3N3CCC4(CC3)CC4)cc21` [Example 38], the results for the IC50 (in the test with HT29 cells; in test [1]) were 126 nM and 131 nM, respectively.
